Measured values taken from patent US20210163453A1, “DERIVATIVES OF PAPAVERINE THAT ARE EFFECTIVE HYPOXIC TUMOR RADIOSENSITIZERS” (Ohio State Innovation Foundation, priority 2018, published 2021).
Like-named read-outs stand apart in the source and are kept apart here.

Experiments:
PDE10A = target: T1, PDE10A (Homo sapiens, UniProt Q9Y233); test: PDE10A enzymatic assay (PDE10A activity assay kit, BPS Bioscience); assay type: biochemical
T1 construct: purchased BPS Bioscience
Method: FIGS. 7A-7D show OCR and cellular toxicity data. […] Bars represent mean OCR and PDE10 inhibitory activities from at least 5 (OCR) or 3 (PDE) replicates. All experiments were repeated at least twice. […] Values are mean+−SEM. […]
The structure activity relationship of PPV relative to two assays was assessed: inhibition of cellular OCR by Seahorse, and inhibition of PDE10A by purified enzyme activity in multiwell plate (PDE10A activity assay kit, BPS Bioscience). […] These lead compounds were synthesized from commercial precursors and purified on silica gel column.

EO771 cells = assay type: cell-based, Murine; conditions: for competition with rotenone on OCR: PPV given before rotenone; for inhibition of oxygen consumption (OCR), effective concentration (words): real time Seahorse XF dose response
Method: Error bars represent standard deviation.
FIGS. 2A-2D are OCR measurements and cell viability assessments. FIG. 2A-2B are representative of OCR measurement in competition assay between PPV and complex I inhibitors piericidin A (FIG. 2A) and capsaicin (FIG. 2B). Values represent the means+−SD. […] Bar charts represent mean of viable cells in duplicates+−standard deviation.
(§1) Seahorse analysis of the OCR. Oxygen consumption rate (OCR) was measured using Seahorse XF96 Flux Analyzer (Agilent Technologies). The cells were seeded to attach overnight, wells were washed with pre-warmed XF Calibrant (Agilent Technologies) and the replaced with unbuffered Assay Medium (pH 7.4, 5 mM glucose, 1 mM L-glutamine). The plates were incubated at 37° C. in a CO2-free incubator for 2 hours prior to assay. For succinate rescue assay, cells were permeabilized using XF Plasma Membrane Permeabilizer Reagent (XF PMP, Agilent Technologies) according to the manufacturer's instructions. The OCR rate was measured in 1× Mitochondrial Assay Solution (MAS) (70 mM sucrose, 220 mM mannitol, 10 mM KH2PO4, 5 mM MgCl2, 2 mM Hepes, 0.6% (w/v) fatty acid-free BSA and 1 mM EGTA; pH 7.4). After baseline oxygenation was established, 1 μM rotenone or 10 μM PPV was injected at time A, followed by 5 mM succinate at time B. Error bars represent standard deviation. For the washout experiment, EO771 cells were seeded overnight, then treated with 10 μM PPV or 1 μM rotenone 3 hours prior to OCR measurement. Media was replaced 1 and 2 hours before measurement and OCR reported.

cell lines of Table 1 = test: Cell lines tested for sensitivity to PPV (mitochondrial function); assay type: cell-based, Human, Murine, Canine; conditions: 29 cell lines: breast, colon, leukemia, lung, normal, osteosarcoma, pancreas, pharynx, tongue
Method: as §1
PPV was tested in vitro to determine if it could decrease mitochondrial function in all cells tested in minutes at low micromolar concentrations (Table 1, FIG. 1A).

[1] = test system: NDUFV1 KO NDI1 flank tumors; test: Pimonidazole staining, NDUFV1 KO NDI1 flank tumors; assay type: in vivo, mice; conditions: 2 mg/kg PPV
Method: (§2) FIGS. 5A-5E show papaverine radiosensitizes through complex I inhibition. […] Values represent mean viable cells+−SD. […] Values are mean+−SD. […] P value was calculated with two-tailed two-sample t test. […] Curves represent mean tumor volumes+−SEM.
Pimonidazole staining. Pimonidazole adducts were visualized in hypoxic regions within histological sections of tumor tissues (Kizaka-Kondoh, S. et al. Cancer science 100, 1366-1373 (2009)). Immune-deficient mice bearing EO771 and A549 flank xenografts were treated with 2 mg/kg PPV or saline and 60 mg/kg pimonidazole administered I.P. at 30 minutes and tumors harvested at 90 minutes. Tumor sections were stained with anti-pimonidazole rabbit antisera and anti-rabbit Alexa Fluor 488 secondary antibody. The hypoxic fraction of each tumor was quantified by thresholding signal at 50% of the maximum signal on control sections. Area covered by pimonidazole-positive cells was evaluated from 20 images per animal and averaged. Error bars represent the standard deviation.

[2] = test system: NDUFV1 KO NDI1 flank xenografts; test: Tumor growth delay of NDUFV1 KO NDI1 flank xenografts with XRT; assay type: in vivo, mice; conditions: 2 mg/kg PPV 35 minutes prior to 8 Gy
Method: as §2
FIGS. 6A-6E show uncropped western blot membrane used for FIG. 5A showing NDUFV1 and PDH E1α levels (FIG. 6A) before probing for NDI1 (FIG. 6B). […] Values represent mean OCR from at least 5 replicates+−SD. […] Curves represent averaged colony counts+−SD. […] Values are mean tumor volumes+−SEM.
Tumor Growth kinetics. 2×10^6 EO771 or 5×10^6 A549 cells were injected s.c. into the flanks of 6-week old female immunocompetent C57/B6 (EO771) or immunocompromised nu/nu (A549) mice. Caliper measurements of opposing diameter were used to calculate the tumor volumes. Upon reaching […], the tumors were visualized by cone beam CT and treatment plans calculated using SARRP software. […] Tumor volumes were measured until the post treatment volume increased 3-fold. Error bars represent standard deviation.

T1 sequence (Q9Y233 267-1055): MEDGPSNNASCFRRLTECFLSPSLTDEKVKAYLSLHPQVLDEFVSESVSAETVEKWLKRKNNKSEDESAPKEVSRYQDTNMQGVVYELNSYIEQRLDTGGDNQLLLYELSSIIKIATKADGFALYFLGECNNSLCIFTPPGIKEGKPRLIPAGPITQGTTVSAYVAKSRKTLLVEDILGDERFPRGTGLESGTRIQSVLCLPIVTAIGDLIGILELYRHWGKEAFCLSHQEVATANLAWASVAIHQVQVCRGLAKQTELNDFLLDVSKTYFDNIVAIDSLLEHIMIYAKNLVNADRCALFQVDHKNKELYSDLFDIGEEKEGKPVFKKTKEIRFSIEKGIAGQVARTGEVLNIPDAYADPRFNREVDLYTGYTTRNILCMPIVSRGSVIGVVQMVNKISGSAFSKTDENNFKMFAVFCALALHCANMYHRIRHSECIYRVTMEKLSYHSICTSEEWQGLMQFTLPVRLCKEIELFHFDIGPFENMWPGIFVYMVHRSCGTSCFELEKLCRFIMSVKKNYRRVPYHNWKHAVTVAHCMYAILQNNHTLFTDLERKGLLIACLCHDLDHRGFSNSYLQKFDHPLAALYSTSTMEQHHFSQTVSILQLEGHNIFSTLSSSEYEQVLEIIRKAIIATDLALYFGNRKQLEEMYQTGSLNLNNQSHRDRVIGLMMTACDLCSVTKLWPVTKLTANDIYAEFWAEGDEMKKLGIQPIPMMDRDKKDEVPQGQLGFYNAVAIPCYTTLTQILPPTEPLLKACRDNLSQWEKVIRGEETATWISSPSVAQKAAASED

SMILES	IC20 (PDE10A; PDE10A2 enzymatic assay, n=3 replicates, read-out: PDE IC20 (PDE10A IC20))	Inhibitory activity PDE10A % of PPV (PDE10A; PDE10A inhibition at 1 μM, normalized to PPV)	PDE10 activity compared to PPV (PDE10A; compared to PPV)	efficiency at rotenone binding pocket relative to rotenone (EO771 cells)	competition with rotenone on OCR (EO771 cells)	competition with rotenone on OCR (EO771 cells; listed as papaverine)	interaction with complex 1 inhibitors piericidin A or capsaicin (EO771 cells; competition assay)	inhibition of oxygen consumption (OCR), effective concentration (words) (EO771 cells)	inhibition of oxygen consumption (OCR), effective concentration (words) (EO771 cells; listed as Papaverine)	sensitivity to PPV (cell lines of Table 1)	hypoxic fraction by pimonidazole [1]	radiation growth delay with drug [2]
COc1cc2ccnc(Cc3cccc4ccccc34)c2cc1OC [SMV-32]	12 µM	38.66 % of PPV	40%	–	–	–	–	–	–	–	–	–
COc1ccc(Cc2nccc3cc(OC)c(OC)cc23)cc1OC [PPV, papaverine]	–	–	–	approximately 100 × lower efficiency	block the activity of the classical complex 1 inhibitor rotenone	blocked rotenone's inhibitory activity	no interaction	effective at low micromolar concentrations	rapidly inhibited oxygen consumption at low micromolar concentrations	List of cell lines positively tested for sensitivity to PPV	no decrease of the hypoxic fraction	resistant to PPV dependent increase in radiation growth delay
